Test results: PubChem BioAssay AID651617 (Broad Institute, 2012)

System: M. tuberculosis log-phase replicating growth, plate reader
Assay: growth inhibition of replicating M. tuberculosis, dose response, counter-screen, dry powder (AID 651617)

SMILES	IC90
c1ccc(-c2nnc(SCC3CC3)o2)cc1	125 µM
c1ccc(-c2nnc(SCc3cccnc3)o2)cc1	125 µM
[N-]=[N+]=NCCOCCNC(=O)CCCOc1ccc(CS(=O)c2nnc(-c3ccc(F)cc3)o2)nc1 (stereo not drawn)	125 µM
